Data published in US9056098B2, “Hemoglobin-based oxygen carrier-containing pharmaceutical composition for cancer targeting treatment and prevention of cancer recurrence” (Vision Global Holdings Ltd., priority 2012, dated 2015).
Several values for one entry are separate records, joined by “and”; a condition that tells them apart may be missing. Equal entries are not always repeated.

Columns and labels:
Assay type in all cases: cell-based
[1] = system: MCF7 cells isolated from mammospheres (cancer stem cells); experiment: MTT assay on cancer stem cells from MCF7 mammospheres; conditions: Hb 0.2 g/dL, Bort 0.5 μM, 5FU 5 μM
Protocol: (§1) Cell viability is measured using a 3-(4,5-dimethylthiazol-2-yl)-2,5-diphenyltetrazolium bromide (MTT) proliferation assay. Briefly, HepG2 or Huh7 cells are seeded in a 96-well flat-bottomed microplate (6000 cells/well) and cultured in 100 μL growth medium at 37° C. and 5% CO2 for 24 h. Cell culture medium in each well is then replaced by 100 μL cell growth medium, containing either no drug, Hb alone or Hb with another chemotherapeutics at their IC50 concentrations. Incubation of Hb for 24 h, 20 μL MTT labeling reagent (5 mg/mL in PBS solution) is added to each well for further 4 h at 37° C. The growth medium is removed gently, and 200 μL DMSO is then added to each well as solubilizing agent to dissolve the formazan crystals completely. The absorbance at the wavelength of 570 nm is measured by Multiskan EX (Thermo Electron Corporation), and each data point represents the means±SD from triplicate wells.
To test sensitivity of the cancer stem cells to chemotherapeutic agent alone or to the combined therapy of hemoglobin-based oxygen carrier and the chemotherapeutic agent, different sets of chemotherapeutic agent and/or the hemoglobin-based oxygen carrier of the present invention are administered to MCF7 cells isolated from mammospheres which are obtained at later passages, e.g. passages 7 and 8. Before testing the sensitivity of the cancer stem cells, the drug resistance of CD44+/CD24− to chemotherapeutic agent is shown in FIG. 32. Unsorted MCF7 cells and CD44+/CD24− sorted cells are incubated with DMSO (as control) and 90 nM of Taxol for 16 hours and 4 days. Phase contrast images (FIG. 32) for each set of sample are taken at each time interval (16 hours and 4 days) and the sorted cells after Taxol treatment for 4 days are further tested by MTT assay (as described in Example 3) to confirm the drug resistance of these cells to chemotherapeutic agent.
The high resistance of the CSCs to chemotherapeutic agent is further confirmed by the results of MTT assays on single cells from two passages (P7 and P8) after the mammospheres are treated with different combination of chemical(s) for at least 24 hours before trypsinization of mammospheres. The mammospheres are grown under the hypoxic conditions (5% CO2, 1.1% 02) to mimic the physiological environment of a tumor. Different combination of chemical(s) used in the MTT assays include the Hb alone (0.2 g/dL), Bortezomib (“Bort”, 0.5 μM) alone, 5-fluorouracil (“5FU”, 5 μM) alone, or any combination of the above. In case of the combinational drug (i.e. Hb+at least one chemotherapeutic agent), the trypsinized cells are incubated with 0.2 g/dL of Hb for 24 hours followed by the addition of the intended chemotherapeutic agent(s) and incubated for another 24 hours. In the normalized value, “1” represents 100% of survival rate; 0.75 represents 75% of survival rate, etc.

Huh7 cells = experiment: MTT cytotoxicity assay in Huh7 cells
Protocol: (§2) HepG2 and Huh7 cell lines are used. These cells are cultured in DMEM (Invitrogen) with 10% Fetal bovine serum (FBS), 100 U/ml penicillin and 100 μg/ml streptomycin at 37° C. For normoxic condition, cells are incubated with ambient O2 concentration and 5% CO2; for hypoxic condition, cells are incubated with 0.1-0.5% O2 (Quorum FC-7 automatic CO2/O2/N2 gas mixer) and 5% CO2.
as §1

HepG2 cells = experiment: MTT cytotoxicity assay in HepG2 cells
Protocol: as §2, §1

[2] = system: CD44+/CD24− sorted MCF7 cells; experiment: Taxol resistance of CD44+/CD24− sorted MCF7 cells (morphology, MTT); conditions: 90 nM
Protocol: as §1
In order to test the effect of hemoglobin-based oxygen carrier on the cancer stem cells in a tumor, the MCF7 cells are incubated under hypoxic condition (5% CO2 and 1.1% O2) for 9-20 days before passing to the cell sorter where two filters are used: PE-A for CD24 marker while APC-A for CD44 marker. Quadrant 1 where cells are positive to CD44 and negative to CD24 (FIG. 31) are sorted for further analysis. […]

[3] = Mammosphere (P7) under Hypoxic condition
[4] = Mammosphere (P8) under Hypoxic condition
[5] = Homo sapiens, Huh-7, Huh7 hypoxic
[6] = Homo sapiens, Huh-7, Huh7 normoxic
[7] = Homo sapiens, HepG2, HepG2 hypoxic
[8] = Homo sapiens, HepG2, HepG2 normoxic

SMILES	Absorbance (replicates) [1, 3]	Normalized absorbance (replicates), 1 represents 100% of survival rate [1, 3]	Normalized absorbance Avg, 1 represents 100% of survival rate [1, 3]	Absorbance (replicates) [1, 4]	Normalized absorbance (replicates), 1 represents 100% of survival rate [1, 4]	Normalized absorbance Avg, 1 represents 100% of survival rate [1, 4]	IC50 (Huh7 cells; [5]) [µM]	IC50 (Huh7 cells; [6]) [µM]	IC50 (HepG2 cells; [7]) [µM]	IC50 (HepG2 cells; [8]) [µM]	resistance of Huh7 cells as compared to HepG2 cells (Huh7 cells; hypoxic condition) [fold]	resistance of Huh7 cells as compared to HepG2 cells (Huh7 cells; normoxic condition) [fold]	IC50 (Huh7 cells; Huh7 hypoxic) [µM]	IC50 (Huh7 cells; Huh7 normoxic) [µM]	IC50 (HepG2 cells; HepG2 hypoxic) [µM]	IC50 (HepG2 cells; HepG2 normoxic) [µM]	survival (MTT) ([2]; 4 days)	mammosphere formation ([2]; both unsorted and CD44+/CD24− sorted cells)
O=c1[nH]cc(F)c(=O)[nH]1 [5FU, 5-fluorouracil]	0.171 and 0.197 and 0.139 and 0.143 and 0.169	0.7566 and 0.8942 and 0.9048 and 1.042 and 0.7355	0.8667	0.155 and 0.165 and 0.129 and 0.157	0.7416 and 0.7895 and 0.6172 and 0.7512	0.7249	4000	3500	4000	4000								
CC(C)C[C@H](NC(=O)[C@H](Cc1ccccc1)NC(=O)c1cnccn1)B(O)O [Bortezomib]	0.178 and 0.172 and 0.177 and 0.163 and 0.174	0.8624 and 0.9206 and 0.9418 and 0.9101 and 0.9365	0.9143	0.169 and 0.166 and 0.159 and 0.155	0.8086 and 0.7943 and 0.7608 and 0.7416	0.7763	60	55	0.7	0.5	86	110						
N.N.[Cl][Pt][Cl] [Cisplatin]													100	70	170	130		
COc1cccc2c1C(=O)c1c(O)c3c(c(O)c1C2=O)C[C@@](O)(C(=O)CO)C[C@@H]3O[C@H]1C[C@H](N)[C@H](O)[C@H](C)O1 [Doxorubicin]							6	5	30	10								
CC(=O)O[C@H]1C(=O)[C@@]2(C)[C@H]([C@H](OC(=O)c3ccccc3)[C@]3(O)C[C@H](OC(=O)[C@H](O)[C@@H](NC(=O)c4ccccc4)c4ccccc4)C(C)=C1C3(C)C)[C@]1(OC(C)=O)CO[C@@H]1C[C@@H]2O [Taxol]																	about 96%	seem to be inhibited
